Source: patent publication US4689218A, “Effervescent composition with analgesic activity” (priority 1985, dated 1987)
Entries after “also recorded” stand apart in the source; their conditions may differ.

Assays:
[1] = cited from earlier work
[2] = oral route, tablet; cited from earlier work
oral and gastric mucosa = conditions: oral administration (b7), mucosa of the mouth, aqueous suspension (b9); cited from earlier work
[3] = Stability (degradation, colour) of lysine-containing preparation; format: physicochemical; conditions: larger amounts of lysine (more than 30-40% of arginine substituted)

CC(C)Cc1ccc(C(C)C(=O)O)cc1 (stereo not shown) [Ibuprofen, 2-(4-isobutyl-phenyl)-propionic acid]
Solubility in water [1]: very low solubility in water
Kinetics of absorption [2]: relatively slow kinetics of absorption
Irritability of mucosa (oral and gastric mucosa): some irritability of gastric mucosa; also recorded: irritant for the mucosa of the mouth

NCCCC[C@H](N)C(=O)O [lysine]
Degradation / brown colour of the pharmaceutical preparation [3]: easily degrades making of a brown colour the pharmaceutical preparation
